Results as given in patent US8129121B2, “Regulation of lipid droplet formation by modulation of FIT1 and FIT2 and uses thereof” (Albert Einstein College of Medicine of Yeshiva University, priority 2007, dated 2012).

Experiments:
FIT2 = assay: Lentivirus shRNA knockdown of FIT2 in NIH-3T3 L1 cells, FIT2 mRNA and protein; type: cell-based, mouse; conditions: adipocytes infected with lentivirus, vs control shRNA or no virus
Source text: (§1) FIG. 4A-4C. shRNAi mediated knockdown of FIT2. NIH-3T3 or RAW246.7 cells were infected with lentivirus expressing shRNA sequence targeting murine FIT2 (FIT2shRNA), or control shRNA (contshRNA), or no lentivirus (control). (A) FIT2shRNA reduced lipid droplet formation during NIH-3T3 cell differentiation (days of differentiation are shown above image) as visualized by BODIPY493/503 staining. […] Expression of differentiation markers Apt and PPARgamma, were not changed in FIT2shRNA treated cells compared to controls.
Lentivirus shRNA. The following short hairpin RNA (shRNA) sequences (sense strand shown) were used to knockdown mouse FIT2 expression: shRNAcont, […] (SEQ ID NO:20); shRNAFIT2, (SEQ ID NO:21) […].
(§2) Double stranded shRNA DNAs were used to generate lentiviruses using the U6 promoter driven BLOCK-iT Lentivirus RNAi expression system (Invitrogen Corporation). Knockdown of human FIT2 in HEK293 cells was performed by stably transfection using pEntryU6 vector (Invitrogen Corp). NIH-3T3 L1 pre-adipocytes and HepG2 cells were infected with an MOI of 10-50.
(§3) shRNA suppression of FIT2 abolishes lipid droplet formation during adipogenesis. To provide a direct test if FIT proteins are essential for the formation of lipid droplets, knockdown of FIT expression was sought in established cellular models of lipid droplet formation. […]

NIH-3T3 L1 adipocytes = assay: Lentivirus shRNA knockdown of FIT2 in NIH-3T3 L1 cells during adipogenesis: lipid droplets, differentiation markers, TG biosynthesis, lipolysis; type: cell-based, mouse
Source text: as §1
FIG. 11A-11B. Triglyceride biosynthesis and lipolysis assays in FIT2 knockdown cells. (A) Triglyceride synthesis measurements were performed at each time point during differentiation using ^14C glycerol and TLC analysis of triglyceride levels quantified by PhosphorImager analysis. Each time point contained 3 independent samples for each condition, and represented as mean±std, p<0.001. […] (B) Lipolysis assays performed on cell lysates from NIH 3T3-L1 cells at day 4 and day 6 of differentiation. No differences were observed between control and shRNAcont and FIT2shRNA adipocytes.
Cell culture. HEK293, and HeLa cells were grown in DMEM 10% FBS. NIH-3T3 L1 adipocytes were a kind gift from Philip Scherer and grow and differentiated by standard methods (24).
Triglyceride biosynthesis and DGAT assays. Cells in culture were incubated with 7.5 μCi/mL of 14C-glycerol (Specific activity: 125-180 mCi/mmol, NEN-Amersham) for the indicated times, followed by extraction with HIP and separation by TLC as referenced above. Radioactive triglycerides were quantified using PhosphorImager analysis and represented as a rate of triglyceride production using arbitrary units obtained from PhosphorImager analysis.
Lipase activity assay. Total cellular lipase activity was measured using the established method of Holm and Osterlund in Methods in Molecular Biology 1999; 109, p 109-121.
as §2, §3

With “FIT2 shRNA: lentivirus-expressed short hairpin RNA targeting murine FIT2, SEQ ID NO:21 (CACCGCACCATGTTTGGTTTGTTGGCGAACCAACAAACCAAACATGGTGC)” the “FIT2 mRNA” value (FIT2; Northern blot) was “significantly suppressed”, the FIT2 protein (FIT2; Western blot) was “significantly suppressed” and the Triglyceride biosynthesis (NIH-3T3 L1 adipocytes; 14C glycerol, TLC, knockdown adipocytes compared to controls) was “similar”. The lipid droplets (NIH-3T3 L1 adipocytes; BODIPY493/503 staining, pre-adipocytes (day 0) and mature adipocytes (day 4 to 9)) was “almost complete absence of lipid droplets”, the “expression of PPARgamma and AP2 (markers of adipocyte differentiation)” value (NIH-3T3 L1 adipocytes; FIT2 suppressed cells, Northern blot) was “not changed” and the triglyceride lipase activities (NIH-3T3 L1 adipocytes; cell lysates at day 4 and day 6 of differentiation, compared to controls) was “similar”.
